Test results from patent publication US20020147136A1, “Compounds for targeting endothelial cells, compositions containing the same and methods for their use” (priority 2000, published 2002).
Residues, ends and D or L forms follow the SMILES beside them. No end group written: not given here.

Columns and labels:
[1] = tested on: HAEC; experiment: Inhibition of TKPPR-bubble binding to HAEC in static culture by competing agents; format: cell-based, human; settings: for ability to block binding of BRU-114 microbubbles to HAEC: up to 200 microM; for half-maximal inhibition of bubble binding / IC50 / Bubbles Bound: 5% TKPPR bubbles; for IC50: read-out: half-maximal inhibition of bubble binding; for inhibition of bubble binding to HAEC: Example 12
Experimental: Vials of the compositions of example 5 and of example 6 may be reconstituted with 5 mL of sterile saline, injected using a 20-guage 1.5 inch needle. Bubbles may be then formed within the vials by shaking by hand vigorously for 30 seconds. 1 to 5 mL of the bubble formulation may be removed from each vial and diluted with 3 volumes of D-PBS (without calcium or magnesium) within 1 hour of use.
Chamber slides containing confluent HAEC may be drained of culture medium, which was immediately replaced with one of the final bubble solutions prepared above. The wells may be slightly overfilled such that the liquid meniscus protrudes slightly above the plastic well-forming scaffold of the slide. Bubble solutions may be only added to alternate wells to minimize liquid cross-talk. The wells may be sealed with a piece of Parafilm and the slide incubated 20 minutes, inverted (according to Klibanov A. L., Advanced drug Delivery Reviews, 37, 1999, 139-157) to allow the bubbles to rise and make contact with the cells, after which the solutions may be poured off. Weakly associated bubbles may be removed by washing each well twice with 0.5 mL of D-PBS, swirling gently each time before pouring off. Additional D-PBS (0.5 mL) may be added to wells after the washes to keep the cells submerged until microscopic evaluation.
Composition I of Example 5 was repeated exactly as described except that 0.5 mg DPPE-GTKPPR was added (instead of 2.5 mg) yielding compositions with 1% DPPE-GTKPPR. Vials of this composition as well as that of composition I ofExample 5 (5% DPPE-GTKPPR) were reconstituted with 5 mL of sterile saline, injected using a 20-guage 1.5 inch needle. Bubbles were then formed within the vials by shaking by hand vigorously for 30 seconds. 1 to 5 mL of the bubble formulation was removed from each vial and diluted with 3 volumes of D-PBS (without calcium or magnesium) within 1 hour of use.
Chamber slides containing confluent HAEC were drained of culture medium, which was immediately replaced with one of the final bubble solutions prepared above. The wells were slightly overfilled such that the liquid meniscus protruded slightly above the plastic well-forming scaffold of the slide. Bubble solutions were only added to alternate wells to minimize liquid cross-talk. The wells were sealed with a piece of Parafilm and the slide was incubated 20 minutes, inverted to allow the bubbles to rise and make contact with the cells, after which the solutions were poured off. Weakly associated bubbles were removed by washing each well twice with 0.5 mL of D-PBS, swirling gently each time pouring off. Additional D-PBS (0.5 mL) was added to wells after the washes to keep the cells submerged until microscopic evaluation.
Assays were performed as described for Example 7 using microbubble compositions containing 2% BRU-114 (Composition I of Example 5) as a % of total phospholipid in the composition.
Compositions were reconstituted and assays were performed as described in Example 7 using microbubble compositions containing 1% BRU-114 (Composition I of Example 5) as a % of total phospholipid in the composition.
Assays were performed as described for Example 7 using microbubble compositions containing 2% BRU-114 (as a % of total phospholipid in the composition).

[2] = tested on: NP-1/Fc; experiment: Inhibition of 125I-VEGF165 binding to NP-1/Fc
Experimental: The ability of various compositions comprising TKPPR monomers or multimers to inhibit ^125I-VEGF binding to NP-1 was evaluated using NP-1/Fc. Competitive binding assays with microtiter plates coated with NP-1/Fc (R&D sytems) were performed using ^125I-VEGF165 as radioligand (Amersham Pharmacia Biotech Cat. No. IM274, Specific Activity: 1000-2500 Ci/mmol). […] Plates (Nunc MaxiSorp white opaque Microtiter plate [C-bottom, 437796]) were coated by incubating the wells with 75 µl of a solution containing 3 μlg/mL NP-1/Fc in D-PBS/0.1% NaAzide overnight at 4° C. after covering with sealing tape (Dynex, VWR Cat. No. 62402-931). […] All points were derived from triplicate wells, and for each set of replicates in NP-1/Fc-coated wells, a companion set in the absence of the receptor was included. For competitive binding, a series of unlabelled competitor concentrations were prepared in a 250 pM solution of ^1251-VEGF165 in assay buffer Solutions were added to 1.2 ml polypropylene tubes conforming to the microtiter format (Costar Cat. No. 29442-602), and transferred from these tubes to microtiter wells, without further dilution, using a multichannel pipettor. After addition of the appropriate solutions, microtiter plates were incubated at 4° C. for 2 hours. […] The plates were blotted dry and 25 μl deionized water and 100 μl scintillation fluid (Optiphase SuperMix, Wallac) were added to each well. Plates were agitated using a Plate Shaker (Hyperion, Cat. No. 4030-100F) for 3-5 minutes and were then counted using a Microplate Scintillation Counter (Wallac Microbeta Trilux) A set of serially diluted 125I-VEGF165 standard wells ranging from 200 to 0.04 pM were included with each experiment to aid in quantification of the amount of radiolabel bound.

[3] = tested on: Neuropilin-1/Fc; experiment: Fluorescence polarization binding to NP-1/Fc; settings: for binding to NP-1/Fc by FP: Oregon Green-labeled ligand
Experimental: The ability of various compositions comprising TKPPR monomers or multimers to bind to NP-1/Fc and KDR-Fc was evaluated using FP. The binding studies of various Oregon Green (OG)-labeled compounds comprising TKPPR monomers or multimers and related compounds with Neuropilin-1/Fc, and KDR-Fc (both from R&D Systems), were carried out at 37° C. in D-PBS buffer (pH 7.4). FP values (mP) for each substrate was measured by titrating the ligand (5-20 nM) with receptor protein using a Jolley Research and Consulting FPM-1 fluorescence Polarization analyzer. In each of these experiments the observed polarization values were plotted against receptor concentration. The mP values for 100% binding of tracer labeled ligand to receptor protein was calculated using the software provided by the vendor.

[4] = competitor 50 microM, 2% BRU-114 bubbles
[5] = competitor 100 microM, 2% BRU-114 bubbles
[6] = competitor 200 microM, 2% BRU-114 bubbles
[7] = competitor 100 ng/ml, 2% BRU-114 bubbles
[8] = competitor 200 ng/ml, 2% BRU-114 bubbles

CC(O)C(NC(=O)C(N)CS)C(=O)NC(CCCCN)C(=O)N1CCCC1C(=O)N1CCCC1C(=O)NC(CCCNC(=N)N)C(=O)NC(CS)C(=O)O (stereo not drawn) [BRU-305] (H-CTKPPRC-OH; configuration not given here)
ability to block binding of BRU-114 microbubbles to HAEC ([1]; 2% BRU-114 bubbles): no ability to block | Bubbles Bound % of control binding [1, 4]: 97% | Bubbles Bound % of control binding [1, 5]: 78% | Bubbles Bound % of control binding [1, 6]: 88%

CC(O)C1/N=C(/O)C(N)CSSCC(C(=O)O)/N=C(/O)C(CCCNC(=N)N)/N=C(\O)C2CCCN2C(=O)C2CCCN2C(=O)C(CCCCN)/N=C\1O (stereo not drawn) [BRU-306]
ability to block binding of BRU-114 microbubbles to HAEC ([1]; 2% BRU-114 bubbles): no ability to block | Bubbles Bound % of control binding [1, 4]: 97% | Bubbles Bound % of control binding [1, 5]: 71% | Bubbles Bound % of control binding [1, 6]: 99%

C[C@@H](O)[C@H](N)C(=O)N[C@@H](CCCCN)C(=O)N1CCC[C@H]1C(=O)N[C@@H](CCCNC(=N)N)C(=O)O [TKPR, L-threonyl-L-lysyl-L-prolyl-L-Arginine, reference compound] (H-TKPR-OH)
potency at inhibiting BRU-114 microbubble binding relative to TKPPR (BRU-95) ([1]; 1% BRU-114 bubbles): less potent than TKPPR | inhibition of TKPPR-bubble binding to HAEC ([1]; Example 7, compared with free TKPPR): less effectively than free TKPPR | Bubbles Bound (average of duplicate) ([1]; competitor 5 microM, 1% BRU-114 bubbles): 1152 | Bubbles Bound (average of duplicate) ([1]; competitor 10 microM, 1% BRU-114 bubbles): 976 | Bubbles Bound (average of duplicate) ([1]; competitor 25 microM, 1% BRU-114 bubbles): 1171 | Bubbles Bound (average of duplicate) ([1]; competitor 50 microM, 1% BRU-114 bubbles): 904 | Bubbles Bound (average of duplicate) ([1]; competitor 100 microM, 1% BRU-114 bubbles): 556 | fold less potent a binding inhibitor than TKPPR [2]: 5 to 6 fold | IC50 ([2]; 250 pM 125I-VEGF165, 4° C., 2 hours): 280000 nM

BRU-170: TPATSVRG (negative control) [reference compound]
inhibition of 125I-VEGF165 binding to NP-1 Fc ([2]; at 1 μM): no inhibition

BRU-317: TKPPR dimer labeled with Oregon Green (also: dimer, labeled with Oregon Green)
binding to NP-1/Fc by FP [3]: barely detectable | fold more potent than the monomer [2]: 10 to 14 fold

KDR/Fc: soluble human KDR/Fc chimera (R&D Sytems Inc.)
half-maximal inhibition of bubble binding [1]: about 450 ng/mL | IC50 [1]: ~1.4 nM | inhibition of bubble binding to HAEC [1]: inhibit potently | Bubbles Bound ([1]; KDR/Fc added 125 ng/ml): 1030 ± 12 | Bubbles Bound ([1]; KDR/Fc added 250 ng/ml): 786 ± 76 | Bubbles Bound ([1]; KDR/Fc added 500 ng/ml): 342 ± 78 | Bubbles Bound ([1]; KDR/Fc added 1000 ng/ml): 75 ± 5 | Bubbles Bound ([1]; KDR/Fc added 2500 ng/ml): 84 ± 3

TKPPR-K(RPPKT)-K[K(RPPKT)TKPPR]-G-Z-OG [BRU-346]
binding characteristics compared to BRU-326 [3]: did not exhibit the same binding characteristics | binding to NP-1/Fc by FP [3]: negative

Thr-Lys-Pro-Pro-Arg-Lys(Arg-Pro-Pro-Lys-Thr)-Gly-TTDA-OG [BRU-337]
binding characteristics compared to BRU-326 [3]: did not exhibit the same binding characteristics

VEGF165: vascular endothelial growth factor isoform containing 165 amino acids
ability to inhibit binding of BRU-114 microbubbles to HAEC ([1]; 2% BRU-114 bubbles): potently blocked | half-maximal inhibition of bubble binding [1]: about 12.5 ng/mL | IC50 [1]: ~0.3 nM | inhibition of bubble binding to HAEC [1]: potently may inhibit | Bubbles Bound ([1]; VEGF added 6.25 ng/ml): 1184 ± 172 | Bubbles Bound ([1]; VEGF added 12.5 ng/ml): 599 ± 6 | Bubbles Bound ([1]; VEGF added 25 ng/ml): 342 ± 22 | Bubbles Bound ([1]; VEGF added 50 ng/ml): 226 ± 39 | Bubbles Bound ([1]; VEGF added 75 ng/ml): 190 ± 45 | Bubbles Bound (average of duplicate) ([1]; competitor 25 ng/ml, 2% BRU-114 bubbles): 144 | Bubbles Bound (average of duplicate) [1, 7]: 94 | Bubbles Bound (average of duplicate) [1, 8]: 70

B1: VEGF121: VEGF isoform of 121 amino acids, lacks the heparin-binding domain (protein)
chain: APMAEGGGQNHHEVVKFMDVYQRSYCHPIETLVDIFQEYPDEIEYIFKPSCVPLMRCGGCCNDEGLECVPTEESNITMQIMRIKPHQGQHIGEMSFLQHNKCECRPKKDRARQEKCDKPRR
ability to inhibit binding of BRU-114 microbubbles to HAEC ([1]; 2% BRU-114 bubbles): little if any ability to inhibit | Bubbles Bound (average of duplicate) [1, 7]: 878 | Bubbles Bound (average of duplicate) [1, 8]: 849 | Bubbles Bound (average of duplicate) ([1]; competitor 400 ng/ml, 2% BRU-114 bubbles): 778 | effect on BRU-326 binding to NP-1 ([3]; at up to 250nM): no effect
